Data from PubChem BioAssay (NCI).
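Five compound concentrations were applied to cells in 96-well plates for 48 hours; endpoints were derived by simple linear interpolation of the resulting dose-response curve. At the GI50, growth is halved. Definition used: TGI = concentration required for complete inhibition of growth.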

Experiments:
Assay in all cases: DTP human tumour cell line panel, 48 h
NCI-H460 lung = tested on: NCI-H460 lung
ACHN renal = tested on: ACHN renal
MCF7 breast = tested on: MCF7 breast
MDA-MB-435 = tested on: MDA-MB-435
EKVX NSCLC = tested on: EKVX NSCLC
CCRF-CEM leukemia = tested on: CCRF-CEM leukemia
HOP-62 NSCLC = tested on: HOP-62 NSCLC
BT-549 breast = tested on: BT-549 breast
TK-10 renal = tested on: TK-10 renal
SK-OV-3 ovarian = tested on: SK-OV-3 ovarian
COLO 205 colon = tested on: COLO 205 colon
NCI-H226 lung = tested on: NCI-H226 lung
OVCAR-5 ovarian = tested on: OVCAR-5 ovarian
RXF 393 renal = tested on: RXF 393 renal
HS 578T breast = tested on: HS 578T breast
CAKI-1 renal = tested on: CAKI-1 renal
OVCAR-8 ovarian = tested on: OVCAR-8 ovarian
HCT-116 colon = tested on: HCT-116 colon
SF-268 CNS = tested on: SF-268 CNS
SF-539 CNS = tested on: SF-539 CNS
NCI-H522 lung = tested on: NCI-H522 lung
SF-295 CNS = tested on: SF-295 CNS
HCC-2998 colon = tested on: HCC-2998 colon
SW-620 colon = tested on: SW-620 colon
PC-3 prostate = tested on: PC-3 prostate
OVCAR-3 ovarian = tested on: OVCAR-3 ovarian
HT29 colon = tested on: HT29 colon
T-47D breast = tested on: T-47D breast
OVCAR-4 ovarian = tested on: OVCAR-4 ovarian
UACC-62 melanoma = tested on: UACC-62 melanoma
SNB-75 CNS = tested on: SNB-75 CNS
UO-31 renal = tested on: UO-31 renal
HOP-92 NSCLC = tested on: HOP-92 NSCLC
MDA-MB-468 breast = tested on: MDA-MB-468 breast
SR leukemia = tested on: SR leukemia
786-0 renal = tested on: 786-0 renal
NCI-H23 lung = tested on: NCI-H23 lung
SNB-19 CNS = tested on: SNB-19 CNS
M14 melanoma = tested on: M14 melanoma
K-562 leukemia = tested on: K-562 leukemia
DU-145 prostate = tested on: DU-145 prostate
A498 renal = tested on: A498 renal
A549 NSCLC = tested on: A549 NSCLC
U251 CNS = tested on: U251 CNS
NCI/ADR-RES ovarian = tested on: NCI/ADR-RES ovarian
SK-MEL-28 melanoma = tested on: SK-MEL-28 melanoma
SK-MEL-5 melanoma = tested on: SK-MEL-5 melanoma
RPMI-8226 leukemia = tested on: RPMI-8226 leukemia
UACC-257 melanoma = tested on: UACC-257 melanoma
HCT-15 colon = tested on: HCT-15 colon
IGROV1 ovarian = tested on: IGROV1 ovarian
HL-60(TB) leukemia = tested on: HL-60(TB) leukemia
SN12C renal = tested on: SN12C renal
MALME-3M melanoma = tested on: MALME-3M melanoma
SK-MEL-2 melanoma = tested on: SK-MEL-2 melanoma
KM12 colon = tested on: KM12 colon
MDA-MB-231 breast = tested on: MDA-MB-231 breast
LOX IMVI melanoma = tested on: LOX IMVI melanoma

N#Cc1c(NC(=O)c2ccc(C(O)(C(F)(F)F)C(F)(F)F)cc2)sc2c1CCC(=O)C2
GI50 (NCI-H460 lung): 2.73 µM | TGI (NCI-H460 lung): 8.49 µM | GI50 (ACHN renal): 0.346 µM | TGI (ACHN renal): 1.35 µM | GI50 (MCF7 breast): 0.616 µM | TGI (MCF7 breast): 2.53 µM | GI50 (MDA-MB-435): 1.93 µM | TGI (MDA-MB-435): 4.18 µM | GI50 (EKVX NSCLC): 2.65 µM | TGI (EKVX NSCLC): 8.4 µM | GI50 (CCRF-CEM leukemia): 0.338 µM | TGI (CCRF-CEM leukemia): 7.29 µM | GI50 (HOP-62 NSCLC): 3.53 µM | TGI (HOP-62 NSCLC): 13.1 µM | GI50 (BT-549 breast): 0.422 µM | TGI (BT-549 breast): 1.78 µM | GI50 (TK-10 renal): 2.38 µM | TGI (TK-10 renal): 8.7 µM | GI50 (SK-OV-3 ovarian): 2.88 µM | TGI (SK-OV-3 ovarian): 8.16 µM | GI50 (COLO 205 colon): 0.995 µM | TGI (COLO 205 colon): 2.66 µM | GI50 (NCI-H226 lung): 2.01 µM | TGI (NCI-H226 lung): 5.67 µM | GI50 (OVCAR-5 ovarian): 1.67 µM | TGI (OVCAR-5 ovarian): 3.38 µM | GI50 (RXF 393 renal): 0.549 µM | TGI (RXF 393 renal): 2.08 µM | GI50 (HS 578T breast): 1.77 µM | TGI (HS 578T breast): 5.55 µM | GI50 (CAKI-1 renal): 0.465 µM | TGI (CAKI-1 renal): 1.8 µM | GI50 (OVCAR-8 ovarian): 2.27 µM | TGI (OVCAR-8 ovarian): 9.4 µM | GI50 (HCT-116 colon): 0.466 µM | TGI (HCT-116 colon): 5.29 µM | GI50 (SF-268 CNS): 2.37 µM | TGI (SF-268 CNS): 7.27 µM | GI50 (SF-539 CNS): 0.539 µM | TGI (SF-539 CNS): 1.71 µM | GI50 (NCI-H522 lung): 0.363 µM | TGI (NCI-H522 lung): 1.59 µM | GI50 (SF-295 CNS): 2.13 µM | TGI (SF-295 CNS): 5.24 µM | GI50 (HCC-2998 colon): 1.71 µM | TGI (HCC-2998 colon): 3.15 µM | GI50 (SW-620 colon): 0.354 µM | TGI (SW-620 colon): 1.54 µM | GI50 (PC-3 prostate): 0.325 µM | TGI (PC-3 prostate): 1.94 µM | GI50 (OVCAR-3 ovarian): 1.23 µM | TGI (OVCAR-3 ovarian): 2.53 µM | GI50 (HT29 colon): 0.478 µM | TGI (HT29 colon): 6.44 µM | GI50 (T-47D breast): 0.496 µM | TGI (T-47D breast): 2.33 µM | GI50 (OVCAR-4 ovarian): 1.45 µM | TGI (OVCAR-4 ovarian): 3.39 µM | GI50 (UACC-62 melanoma): 1.39 µM | TGI (UACC-62 melanoma): 2.81 µM | GI50 (SNB-75 CNS): 1.31 µM | TGI (SNB-75 CNS): 4.39 µM | GI50 (UO-31 renal): 0.682 µM | TGI (UO-31 renal): 2 µM | GI50 (HOP-92 NSCLC): 0.475 µM | TGI (HOP-92 NSCLC): 1.46 µM | GI50 (MDA-MB-468 breast): 0.6 µM | TGI (MDA-MB-468 breast): 1.67 µM | GI50 (SR leukemia): 0.546 µM | TGI (SR leukemia): > 34.7 µM | GI50 (786-0 renal): 1.13 µM | TGI (786-0 renal): 2.89 µM | GI50 (NCI-H23 lung): 1.14 µM | TGI (NCI-H23 lung): 2.78 µM | GI50 (SNB-19 CNS): 3.44 µM | TGI (SNB-19 CNS): 11.9 µM | GI50 (M14 melanoma): 0.739 µM | TGI (M14 melanoma): 2.77 µM | GI50 (K-562 leukemia): 0.297 µM | TGI (K-562 leukemia): > 100 µM | GI50 (DU-145 prostate): 3.38 µM | TGI (DU-145 prostate): 11.7 µM | GI50 (A498 renal): 12.2 µM | TGI (A498 renal): 26.5 µM | GI50 (A549 NSCLC): 2.75 µM | TGI (A549 NSCLC): 12.6 µM | GI50 (U251 CNS): 0.933 µM | TGI (U251 CNS): 2.71 µM | GI50 (NCI/ADR-RES ovarian): 2.27 µM | TGI (NCI/ADR-RES ovarian): 6.78 µM | GI50 (SK-MEL-28 melanoma): 1.29 µM | TGI (SK-MEL-28 melanoma): 2.76 µM | GI50 (SK-MEL-5 melanoma): 1.58 µM | TGI (SK-MEL-5 melanoma): 2.93 µM | GI50 (RPMI-8226 leukemia): 0.434 µM | TGI (RPMI-8226 leukemia): > 100 µM | GI50 (UACC-257 melanoma): 1.83 µM | TGI (UACC-257 melanoma): 4.1 µM | GI50 (HCT-15 colon): 1.1 µM | TGI (HCT-15 colon): 2.92 µM | GI50 (IGROV1 ovarian): 1.81 µM | TGI (IGROV1 ovarian): 3.86 µM | GI50 (HL-60(TB) leukemia): 0.415 µM | TGI (HL-60(TB) leukemia): > 100 µM | GI50 (SN12C renal): 1.29 µM | TGI (SN12C renal): 3.33 µM | GI50 (MALME-3M melanoma): 0.641 µM | TGI (MALME-3M melanoma): 1.94 µM | GI50 (SK-MEL-2 melanoma): 2.14 µM | TGI (SK-MEL-2 melanoma): 4.36 µM | GI50 (KM12 colon): 1.46 µM | TGI (KM12 colon): 3.32 µM | GI50 (MDA-MB-231 breast): 1.47 µM | TGI (MDA-MB-231 breast): 2.93 µM | GI50 (LOX IMVI melanoma): 0.455 µM | TGI (LOX IMVI melanoma): 1.68 µM
